Among the data in patent US20230278958A1 (Merck Patent GmbH, priority 2020, published 2023) are IC50 and melting point values, retold here.

The test system of one data set is YAP-TEAD interaction. Put plainly: SK-HEP-1 reporter assay (8x TEAD responsive elements driving NanoLuc luciferase). It is filed as cell-based. Particulars: Homo sapiens, SK-HEP1; SK-HEP-1 TEAD-NanoLuc reporter cells, 24 hour incubation, luciferase readout. The protocol: To identify inhibitors of YAP-TEAD interaction, 8× TEAD responsive elements driving the NanoLuc® luciferase gene were stably integrated into SK-HEP-1 cells (ECACC #: 91091816).
For the assay, cells were treated in duplicates with the test compounds in a 10-point dose, with the top concentration starting at 30 μM (final concentration in assay). After a 24 hour incubation at 37° C., 95% rH, and 5% CO2, a luciferase substrate/lysis reagent mix (NanoGlo™, Promega) was added to the cells, allowing the quantification of cellular luciferase activity.
Cell Media: The cells were cultured in the following media: MEM, +10% FBS, +1× GlutaMAX, +1 mM Sodium-Pyruvate, +100 μM Non-essential amino acids, +0.1 mg/ml Hygromycin. The media used for the assay was: MEM (w/o Phenol Red), +10% FBS, +1× GlutaMAX, +1 mM Sodium-Pyruvate, +100 μM Non-essential amino acids, +0.5% Pen/Strep
(§1) Reagents: The reagents used are listed below:
Cell culture: The cells were examined using an inverted microscope to check for health and cell density. To dissociate adherent cells, the monolayer of cells was washed once with pre-warmed PBS. After removing the PBS, 3 ml pre-warmed Accutase® was added to a F75 flask, dispersed evenly and the flask was allowed to sit in incubator for ˜4-5 minutes.
(§2) When a single cell suspension was obtained, 7 ml of prewarmed growth media was added and resuspended with the cells. The cell suspension was transferred to a sterile 15 ml conical centrifuge tube, and spun for 5 min at 300×g, RT. The supernatant was discarded and the pellet was resuspended in 10 ml of pre-warmed growth media.
(§3) The total cell count was determined, and 20 μl of the desired cell number was added to each well of a 384 well plate using a Multidrop Combi. The plates were then incubated for 24 hours at 37° C., 95% rH, and 5% CO2.
(§4) Compound treatment: 24 hours after seeding, the cells were treated with compounds.
(§5) A 1:333 dilution of compounds, diluted in DMSO, was made to get a final concentration of 0.3% DMSO per well. To transfer the compounds to the assay plate, 120 nl was shot from Labcyte low dead volume plates to the cell plates containing 20 μl media/well with the ECHO 555 liquid handling system.
(§6) After treatment, the cells were fed with 20 μl fresh pre-warmed assay media using a Multidrop combi.
The assay plates were then incubated for another 24 h at 37° C., 95% rH, and 5% CO2.
Luciferase readout: 24 h after treatment, the plates were taken out of the incubator and were allowed to equilibrate to RT. 30 μl of NanoGlo® reagent was added to the plates in the dark. Plates were shaken for 20 min on a Teleshake (˜1500 rpm) in the dark. The luminescence was then measured using an EnVision microplate reader. The IC50 values were generated using Genedata Screener®.
Experimental data in SK-HEP-1 reporter assay of the compounds shown in Table 1 are shown in Table 2 below and classified in the following groups: […]

In another data set the test system is NCI-H226 cells. Put plainly: Viability assay in NCI-H226 (Yap-dependent) cells, CyQUANT. Type of data set: cell-based. The note with it: Homo sapiens, 96 hour incubation. The protocol:
The ability of YAP-TEAD inhibitors to inhibit tumor cell growth was evaluated using two different cell lines: NCI-H226, which is a YAP dependent cell line, and SW620 cells, where YAP and TAZ were knocked out using CRISPR to generate a YAP independent cell line.
For the assay, cells were treated in duplicates with the test compounds in a 10-point dose, 1:3 dilution steps, with the top concentration starting at 30 μM (final concentration in assay). After a 96 hour incubation at 37° C., 95% rH, and 5% CO2, a cell-permeant DNA-binding dye that stains only healthy cells (CyQUANT®, Promega) was added to the cells, allowing the quantification of cell viability.
Cell Media: The NCI-H226 cells were cultured in the following media: RPMI 1640, +10% FBS, +1× GlutaMAX, +10 mM HEPES, +0.5% Pen/Strep. The SW620-KO cells were cultured in the following media: DMEM/F-12, +10% FBS, +1× GlutaMAX, +10 mM HEPES, +0.5% Pen/Strep.
as §1
Cell culture: The cells were examined using an inverted microscope to check for health, cell density, etc. To dissociate adherent cells, the monolayer of cells was washed once with pre-warmed PBS. After removing the PBS, 3 ml pre-warmed Accutase was added to a F75 flask, dispersed evenly and the flask was allowed to sit in incubator for ˜4-5 minutes.
as §2, §3, §4, §5, §6
The assay plates were then incubated for 96 h at 37° C., 95% rH, and 5% CO2.
96h after treatment 30 μl of CyQuant® reagent was added to the assay plates using a Multidrop combi in the dark. The plates were then incubated for 1 hour at 37° C., 95% rH and 5% CO2. Thereafter, the assay plates were removed from the incubator and allowed to equilibrate to RT for 30 min in the dark without lid. Finally, they were measured using an EnVision microplate reader with a FITC bottom read program.
Experimental data in the Viability assay of the compounds shown in Table 1 are shown in Table 3 below and classified in the following groups: […]

SMILES strings stand for the structures. pIC50: −log10 of the molar value.

For the compound `O=C(O)c1ccc2c(c1)c1cc(F)ccc1n2-c1ccc(C(F)(F)F)cc1` [Compound 11, 6-fluoro-9-[4-(trifluoromethyl)phenyl]-9H-carbazole-3-carboxylic acid], the melting point lay within 202 to 204 °C. Moreover, in the data set on YAP-TEAD interaction, the negative logarithm of the IC50 (pIC50) was 7.00 to 8.00. This compound also registered an IC50 in the data set on NCI-H226 cells of 0.1 to 1 µM.

For `CC(C)c1ccc2c(c1)c1cc(C(=O)O)ccc1n2-c1ccc(C(F)(F)F)cc1` [Compound 13, 6-(propan-2-yl)-9-[4-(trifluoromethyl)phenyl]-9H-carbazole-3-carboxylic acid], the melting point lay within 271 to 272 °C. The compound also showed a negative-log IC50 (pIC50) in the data set with YAP-TEAD interaction of 7.00 to 8.00. In addition, the IC50 in the data set with NCI-H226 cells fell in the range of 0.1 to 1 µM.

For `O=C(O)c1ccc2c(c1)c1cc(C(F)(F)F)ccc1n2-c1ccc(C(F)(F)F)cc1` [Compound 14, 6-(trifluoromethyl)-9-[4-(trifluoromethyl)phenyl]-9H-carbazole-3-carboxylic acid], the melting point is 292 to 294 °C. This compound also showed a pIC50 with YAP-TEAD interaction of 8.00 to 9.00. This compound also registered a concentration for half-maximal inhibition (IC50) in the data set on NCI-H226 cells of 0.1 to 1 µM.

In turn, `O=C(O)c1ccc2c(c1)c1nc(C(F)(F)F)ccc1n2-c1ccc(C(F)(F)F)cc1` [Compound 16, 2-(trifluoromethyl)-5-[4-(trifluoromethyl)phenyl]-5H-pyrido[3,2-b]indole-8-carboxylic acid] gave a melting point of 160 to 162 °C. Moreover, the pIC50 in the data set with YAP-TEAD interaction is 7.00 to 8.00. Besides, the IC50 in the data set with NCI-H226 cells fell in the range of 0.001 to 0.1 µM.

Turning to `Cc1ccc2c(n1)c1cc(C(=O)O)ccc1n2-c1ccc(C(F)(F)F)cc1` [Compound 17, 2-methyl-5-[4-(trifluoromethyl)phenyl]-5H-pyrido[3,2-b]indole-8-carboxylic acid], the melting point was found to be 300 °C. Besides, the pIC50 in the data set with YAP-TEAD interaction is 8.00 to 9.00. Besides, the IC50 in the data set with NCI-H226 cells fell in the range of 0.001 to 0.1 µM.

As to `O=C(O)c1ccc2c(c1)c1nc(F)ccc1n2-c1ccc(C(F)(F)F)cc1` [Compound 18, 2-fluoro-5-[4-(trifluoromethyl)phenyl]-5H-pyrido[3,2-b]indole-8-carboxylic acid], the melting point is 300 °C. In the data set with YAP-TEAD interaction, this compound showed a pIC50 of 7.00 to 8.00. This compound also displayed an IC50 with NCI-H226 cells of 0.1 to 1 µM.

Turning to `COc1ccc2c(n1)c1cc(C(=O)O)ccc1n2-c1ccc(C(F)(F)F)cc1` [Compound 19, 2-methoxy-5-[4-(trifluoromethyl)phenyl]-5H-pyrido[3,2-b]indole-8-carboxylic acid], the melting point fell in the range of 245 to 247 °C. The same compound gave a negative-log IC50 (pIC50) in the data set on YAP-TEAD interaction of 8.00 to 9.00. The half-maximal inhibitory concentration (IC50) in the data set on NCI-H226 cells lay in the range of 0.1 to 1 µM.

For the compound `Cc1ccc2c3cc(C(=O)O)ccc3n(-c3ccc(C(F)(F)F)cc3)c2c1` [Compound 20, 7-methyl-9-[4-(trifluoromethyl)phenyl]-9H-carbazole-3-carboxylic acid], the melting point was in the range of 250 to 252 °C. The negative logarithm of the IC50 (pIC50) in the data set with YAP-TEAD interaction was 7.00 to 8.00. For the same compound, the IC50 with NCI-H226 cells was 1 to 10 µM.

Regarding `CNC(=O)c1ccc2c(c1)c1cc(F)ccc1n2-c1ccc(C(F)(F)F)cc1` [Compound 23, 6-fluoro-N-methyl-9-[4-(trifluoromethyl)phenyl]-9H-carbazole-3-carboxamide], the melting point lay in the range of 270 to 272 °C. In the data set on YAP-TEAD interaction, the pIC50 is 7.00 to 8.00. The compound also had an IC50 with NCI-H226 cells of 0.001 to 0.1 µM.

On to `CNC(=O)c1ccc2c(c1)c1nc(F)ccc1n2-c1ccc(C(F)(F)F)cc1` [Compound 25, 2-fluoro-N-methyl-5-[4-(trifluoromethyl)phenyl]-5H-pyrido[3,2-b]indole-8-carboxamide], for which the melting point was 250 to 252 °C. This compound also gave a pIC50 in the data set with YAP-TEAD interaction of 6.00 to 7.00.

In turn, `CNC(=O)c1ccc2c(c1)c1ccc(C)cc1n2-c1ccc(C(F)(F)F)cc1` [Compound 26, N,7-dimethyl-9-[4-(trifluoromethyl)phenyl]-9H-carbazole-3-carboxamide] displayed a melting point of 230 to 232 °C. This compound had a pIC50 with YAP-TEAD interaction of 7.00 to 8.00. The compound also displayed an IC50 in the data set on NCI-H226 cells of 0.1 to 1 µM.

Regarding `CNC(=O)c1ccc2c(c1)c1nc(C(F)(F)F)ccc1n2-c1ccc(C(F)(F)F)cc1` [Compound 29, N-methyl-2-(trifluoromethyl)-5-[4-(trifluoromethyl)phenyl]-5H-pyrido[3,2-b]indole-8-carboxamide], the melting point lay within 225 to 227 °C. Further, the pIC50 with YAP-TEAD interaction is 6.00 to 7.00. The IC50 in the data set on NCI-H226 cells is > 10 µM.

The compound `CNC(=O)c1ccc2c(c1)c1cc(C(F)(F)F)ccc1n2-c1ccc(C(F)(F)F)cc1` [Compound 30, N-methyl-6-(trifluoromethyl)-9-[4-(trifluoromethyl)phenyl]-9H-carbazole-3-carboxamide] had a melting point of 242 to 244 °C. Moreover, the negative logarithm of the IC50 (pIC50) in the data set on YAP-TEAD interaction is 7.00 to 8.00. Further, the 50% inhibitory concentration (IC50) in the data set on NCI-H226 cells is 1 to 10 µM.

`CNC(=O)c1ccc2c(c1)c1cc(C#N)ccc1n2-c1ccc(C(F)(F)F)cc1` [Compound 33, 6-cyano-N-methyl-9-[4-(trifluoromethyl)phenyl]-9H-carbazole-3-carboxamide] had a melting point of 270 to 272 °C. In the data set with YAP-TEAD interaction, this compound gave a negative-log IC50 (pIC50) of 7.00 to 8.00. In the data set with NCI-H226 cells, this compound returned a half-inhibitory concentration (IC50) of 0.001 to 0.1 µM.

In the case of `O=C(O)c1cc2c3cccnc3n(Cc3ccc(C(F)(F)F)cc3)c2cn1` [Compound 34, 8-{[4-(trifluoromethyl)phenyl]methyl}-5,8,10-triazatricyclo[7.4.0.0^2,^7]trideca-1(9),2,4,6,10,12-hexaene-4-carboxylic acid], the melting point lay in the range of 195 to 200 °C. The compound further had a pIC50 in the data set with YAP-TEAD interaction of 6.00 to 7.00.

On to `O=C(O)c1cc2c3cccnc3n(-c3ccc(C(F)(F)F)cc3)c2cn1` [Compound 35, 8-[4-(trifluoromethyl)phenyl]-5,8,10-triazatricyclo[7.4.0.0^2,^7]trideca-1(9),2,4,6,10,12-hexaene-4-carboxylic acid], for which the melting point fell in the range of 185 to 188 °C. Also, in the data set on YAP-TEAD interaction, the negative-log IC50 (pIC50) is 7.00 to 8.00. In addition, in the data set on NCI-H226 cells, the IC50 was 0.1 to 1 µM.

Take `Cc1ccc2c(c1)c1cc(C(=O)NCc3ccncc3)ccc1n2-c1ccc(C(F)(F)F)cc1` [Compound 59, 6-methyl-N-[(pyridin-4-yl)methyl]-9-[4-(trifluoromethyl)phenyl]-9H-carbazole-3-carboxamide]: the pIC50 with YAP-TEAD interaction is 7.00 to 8.00. In addition, in the data set with NCI-H226 cells, the concentration for half-maximal inhibition (IC50) fell in the range of 0.1 to 1 µM.

For `COCCC(CO)NC(=O)c1ccc2c(c1)c1cc(C)ccc1n2-c1ccc(C(F)(F)F)cc1` (stereo not drawn) [Compound 61, N-(1-hydroxy-4-methoxybutan-2-yl)-6-methyl-9-[4-(trifluoromethyl)phenyl]-9H-carbazole-3-carboxamide], the pIC50 with YAP-TEAD interaction was 6.00 to 7.00. In the data set with NCI-H226 cells, this compound showed a 50% inhibitory concentration (IC50) of 0.1 to 1 µM.

In turn, `Cc1cc2c3cc(C(=O)O)ccc3n(-c3ccc(C(F)(F)F)cc3)c2cc1C` [Compound 62, 6,7-dimethyl-9-[4-(trifluoromethyl)phenyl]-9H-carbazole-3-carboxylic acid] gave a pIC50 in the data set with YAP-TEAD interaction of 8.00 to 9.00. The compound also gave an IC50 with NCI-H226 cells of 0.1 to 1 µM.

As to `Cc1ccc2c(c1)c1cc(C(=O)O)ccc1n2-c1ccc(OC(F)(F)F)cc1` [Compound 63, 6-methyl-9-[4-(trifluoromethoxy)phenyl]-9H-carbazole-3-carboxylic acid], the pIC50 with YAP-TEAD interaction was 8.00 to 9.00. Besides, in the data set on NCI-H226 cells, the IC50 lay in the range of 1 to 10 µM.
